# From US20040005537A1, “Method of identifying toxic agents using differential gene expression” (priority 2000, published 2004)
# Test system: rat heart tissue
# Assay: GENECALLING differential gene expression analysis after dosing of serotonin modulating agents
# Format: in vivo, Sprague Dawley rats
# Method: Control animals received sterile water or canola oil. The animals were sacrificed 24 hours following the last dose. Liver tissue was dissected from the animals, and total RNA was recovered from the dissected tissue. cDNA was prepared and the resulting samples were processed through using GENECALLING™ differential expression analysis as described in U.S. Pat. No. 5,871,697 and in Shimkets et al., Nature Biotechnology 17:798-803 (1999). The contents of these patents and publications are incorporated herein by reference in their entirety.
# Thousands of gene fragments were initially found to be differentially expressed in rat heart tissue in response to serotonin modulating agents in. Genes fragments whose expression levels were modulated greater than ±1.5-fold were selected for further analysis.
# Column 6 of Table 1, entitled “Function”, lists the type of classification assigned for the protein, based on its function. The 210 single nucleic acid sequences identified herein, are referred to herein as CARDIOTOX 1-210.
smiles,measurement,setting,value
CCN[C@@H](C)Cc1cccc(C(F)(F)F)c1 [dexfenfluramine],"Effects on Transcription Level: Novel gene fragment, 467 bp, 94% SI to mouse gelsolin [J04953]",CARDIOTOX 70,−3.2 fold
same,"Effects on Transcription Level: Novel gene fragment, 535 bp, 90% SI to mouse slow/cardiac troponin C [M29793]",CARDIOTOX 71,−2.0 fold
same,"Effects on Transcription Level: Novel gene fragment, 445 bp, 85% SI to human skeletal muscle alpha 2 actinin [M86406]",CARDIOTOX 72,−1.7 fold
same,"Effects on Transcription Level: Novel gene fragment, 246 bp, 89% SI to mouse ponsin-1 [AF078667]",CARDIOTOX 73,−3.1 fold
same,"Effects on Transcription Level: Novel gene fragment, 126 bp, 77% SI to human DNA sequence from cosmid V311G7, between markers DXS366 and DXS87 on chromosome X [Z69304]",CARDIOTOX 74,+2.0 fold
same,"Effects on Transcription Level: Novel gene fragment, 370 bp",CARDIOTOX 75,−2.6 fold
same,"Effects on Transcription Level: Novel gene fragment, 337 bp, 78% SI to novel human protein AHNAK [M80899]",CARDIOTOX 76,−4.2 fold
same,"Effects on Transcription Level: Novel gene fragment, 100 bp, 93% SI to human KIAA0750 protein [ABO18293]",CARDIOTOX 77,−7.5 fold
same,"Effects on Transcription Level: Novel gene fragment, 44 bp",CARDIOTOX 78,−6.5 fold
same,"Effects on Transcription Level: Novel gene fragment, 698 bp, 93% SI to mouse plenty-of-prolines-101 [AF062655]",CARDIOTOX 79,−2.3 fold
same,"Effects on Transcription Level: Novel gene fragment, 660 bp, 84% SI to mouse membrane protein TMS-2 [AF181685]",CARDIOTOX 80,−3.6 fold
same,"Effects on Transcription Level: Novel gene fragment, 115 bp",CARDIOTOX 81,−4.0 fold
same,"Effects on Transcription Level: Novel gene fragment, 294 bp, 95% SI to mouse Ndr1 related protein Ndr2 [AB033921]",CARDIOTOX 82,−2.0 fold
same,"Effects on Transcription Level: Novel gene fragment, 198 bp",CARDIOTOX 83,+2.5 fold
same,"Effects on Transcription Level: Novel gene fragment, 730 bp, 86% SI to mouse E800 [Y10968]",CARDIOTOX 84,−2.0 fold
same,"Effects on Transcription Level: Novel gene fragment, 294 bp, 98% SI to cysteine conjugate beta-lyase [S61960]",CARDIOTOX 85,−2.0 fold
same,Effects on Transcription Level: Aconitase,"CARDIOTOX 86, GenBank A1243266",−3.1 fold
same,Effects on Transcription Level: Ribosomal protein L7,"CARDIOTOX 87, GenBank M17422",+2.5 fold
same,Effects on Transcription Level: Ribosomal protein L9,"CARDIOTOX 88, GenBank X51706",+10.0 fold
same,Effects on Transcription Level: Ribosomal protein L12,"CARDIOTOX 89, GenBank X53504",−2.2 fold
same,"Effects on Transcription Level: 18S, 5.8S, and 28S ribosomal RNA's","CARDIOTOX 90, GenBank V01270",+5 fold
same,Effects on Transcription Level: Pyruvate dehydrogenase kinase 2 (PDK2),"CARDIOTOX 91, GenBank U10357",−6.9 fold
same,Effects on Transcription Level: D-Binding Protein (DBP),"CARDIOTOX 92, GenBank J03179",−1.9 fold
same,Effects on Transcription Level: Lipoprotein lipase,"CARDIOTOX 93, GenBank L03294",−2.2 fold
same,Effects on Transcription Level: Non-neuronal enolase,"CARDIOTOX 94, GenBank X02610",+3.5 fold
same,Effects on Transcription Level: Glycogen phosphorylase (muscle isozyme),"CARDIOTOX 95, GenBank L10669",−2.0 fold
same,Effects on Transcription Level: Cytochrome c oxidase subunit IV,"CARDIOTOX 96, GenBank X14209",+10.0 fold
same,Effects on Transcription Level: Alpha-globin,"CARDIOTOX 97, GenBank M17083",+3.0 fold
same,Effects on Transcription Level: Beta-globin,"CARDIOTOX 98, GenBank X06701",+3.1 fold
same,Effects on Transcription Level: Myoglobin,"CARDIOTOX 99, GenBank AF197916",+4.7 fold
same,Effects on Transcription Level: Titin,"CARDIOTOX 100, GenBank L38717",−2.0 fold
same,Effects on Transcription Level: Skeletal muscle actin,"CARDIOTOX 101, GenBank V01218",−18.2 fold
same,Effects on Transcription Level: Myosin light chain 2 (MLC2),"CARDIOTOX 102, GenBank M11851",+2.6 fold
same,Effects on Transcription Level: Alpha cardiac myosin heavy chain,"CARDIOTOX 103, GenBank X15938",−3.4 fold
same,Effects on Transcription Level: Troponin I,"CARDIOTOX 104, GenBank U77354",+1.8 fold
same,Effects on Transcription Level: Cardiac calsequestrin,"CARDIOTOX 105, GenBank AF001334",−2.9 fold
same,Effects on Transcription Level: Sulfated glycoprotein 2,"CARDIOTOX 106, GenBank M16975",−1.8 fold
same,Effects on Transcription Level: Aquaporin 7,"CARDIOTOX 107, GenBank AB000507",+1.5 fold
same,Effects on Transcription Level: Carnitine/acylcarnitine carrier protein,"CARDIOTOX 108, GenBank X97831",−2.5 fold
same,Effects on Transcription Level: Glu-Pro Dipeptide Repeat,"CARDIOTOX 109, GenBank U40628",−5.0 fold
same,Effects on Transcription Level: Cystatin beta,"CARDIOTOX 110, GenBank X54737",+2.5 fold
same,"Effects on Transcription Level: Novel gene fragment, 593 bp, 90% SI to human calcineurin B-like protein [Z08983]",CARDIOTOX 111,+1.9 fold
same,"Effects on Transcription Level: Novel gene fragment, 179 bp, 88% SI to human titin [X90568]",CARDIOTOX 112,−3.1 fold
same,"Effects on Transcription Level: Novel gene fragment, 700 bp, 91% SI to mouse periplakin (PPL) [AF116523]",CARDIOTOX 113,+2.5 fold
same,Effects on Transcription Level: Long chain acyl-CoA dehydrogenase (LCAD),"CARDIOTOX 114, GenBank J05029",+1.7 fold
same,Effects on Transcription Level: Sulfated glycoprotein 1 (SGP-1),"CARDIOTOX 115, GenBank M19936",−1.7 fold
same,Effects on Transcription Level: Catalase,"CARDIOTOX 116, GenBank M11670",+2.1 fold
same,Effects on Transcription Level: Alpha-fodrin (A2A) (Nonerythroid spectrin alpha subunit),"CARDIOTOX 117, GenBank AF084186",−1.7 fold
same,Effects on Transcription Level: Cardiac specific sodium channel alpha-subunit,"CARDIOTOX 118, GenBank M27902",−2.0 fold
same,Effects on Transcription Level: Glu-Pro Dipeptide Repeat,"CARDIOTOX 119, GenBank U40628",+4.6 fold
same,"Effects on Transcription Level: Novel gene fragment, 200 bp, 64% SI to human KIAA0733 protein [AB018316]",CARDIOTOX 120,−1.6 fold
same,Effects on Transcription Level: RNA polymerase II transcription factor SIII (p18 subunit),"CARDIOTOX 121, GenBank L42855",+2.0 fold
same,Effects on Transcription Level: Protein-tyrosine phosphalase (LRP),"CARDIOTOX 122, GenBank L01702",+1.7 fold
same,Effects on Transcription Level: Skeletal muscle selenoprotein W (SelW),"CARDIOTOX 123, GenBank U25264",−1.6 fold
same,Effects on Transcription Level: Sarcoplasmic reticulum 2+-Ca-ATPase,"CARDIOTOX 124, GenBank X15635",−2.0 fold
same,Effects on Transcription Level: Ribosomal protein S7,"CARDIOTOX 125, GenBank X53377",+1.7 fold
same,Effects on Transcription Level: Ribophorin I,"CARDIOTOX 126, GenBank X05300",+2.0 fold
same,Effects on Transcription Level: Beta cardiac myosin heavy chain,"CARDIOTOX 127, GenBank X15939",+2.4 fold
same,Effects on Transcription Level: ADP-ribosylation factor 1,"CARDIOTOX 128, GenBank L12380",+1.1 fold
same,Effects on Transcription Level: Laminin receptor,"CARDIOTOX 129, GenBank U04942",+2.6 fold
same,"Effects on Transcription Level: Novel gene fragment, 206 bp, 89% SI to human seryl-tRNA synthetase [X91257]",CARDIOTOX 130,+1.8 fold
same,Effects on Transcription Level: Annexin VI,"CARDIOTOX 131, GenBank X86086",−10.0 fold
same,"Effects on Transcription Level: Novel gene fragment, 325 bp, 90% SI to mouse N-RAP [U76618]",CARDIOTOX 132,+1.7 fold
same,"Effects on Transcription Level: Novel gene fragment, 61 bp (CARDIOTOX 134)",LD10 dose for three days,−1.8 fold
same,"Effects on Transcription Level: Novel gene fragment, 337 bp (CARDIOTOX 133)",LD10 dose for three days,−2.0 fold
same,"Effects on Transcription Level: Novel gene fragment, 378 bp, 88% SI to human coatomer protein (COPA) [U24105] (CARDIOTOX 138)",LD10 dose for three days,−2.0 fold
same,Effects on Transcription Level: Long chain 3-ketoacyl-CoA thiolase (CARDIOTOX 136),"LD10 dose for three days, GenBank D16479",−1.5 fold
same,Effects on Transcription Level: TATA-binding protein interacting protein 120 (TIP120) (CARDIOTOX 135),"LD10 dose for three days, GenBank D87671",+2.3 fold
same,Effects on Transcription Level: Serine protease (CARDIOTOX 139),"LD10 dose for three days, GenBank D88250",+1.6 fold
same,Effects on Transcription Level: Thymosin beta-4 (CARDIOTOX 137),"LD10 dose for three days, GenBank M34043",+1.4 fold
same,Effects on Transcription Level: Annexin VI (no CARDIOTOX assignment given),"LD10 dose for three days, GenBank X86086",−5.1 fold
